Assay results published in patent publication US20240245602A1, “DRUG COMBINATION KITS AND METHODS OF DRUG DELIVERY” (President and Fellows of Harvard College, priority 2020, published 2024).

Experiment: In vivo ciprofloxacin mass in aspirated middle ear fluid by HPLC/MS after delivery through implanted tympanostomy tubes
Conditions: after 5 minutes of therapeutic delivery (Ciprodex)
Procedure: N/A indicates an amount of drug below the detection limit of 100 ng/ml. Chinchillas underwent a sequential series of middle ear saline washes, and middle ear fluid was aspirated for the subsequent analysis by LC-MS.
Chinchillas were randomly allocated into two groups (LI-TT, denoted as Test TT, and SM-TT, denoted as SoC TT).

O=C(O)c1cn(C2CC2)c2cc(N3CCNCC3)c(F)cc2c1=O [ciprofloxacin]
mass of ciprofloxacin within the middle ear, test tubes compared to SoC TTs: up to 5 times
